Legend:
h-NTPDase1 = target: T1, h-NTPDase1 (Homo sapiens, UniProt P49961); set-up: method as in Lecka et al., 2013; conditions: selective inhibitor of h-NTPDase1; ref Lecka et al., 2013; cited from earlier work
T1 construct: made in house; host or cells: COS-7 cells, transient transfection; crude protein extract after sonication
T1 sequence (P49961 1-510): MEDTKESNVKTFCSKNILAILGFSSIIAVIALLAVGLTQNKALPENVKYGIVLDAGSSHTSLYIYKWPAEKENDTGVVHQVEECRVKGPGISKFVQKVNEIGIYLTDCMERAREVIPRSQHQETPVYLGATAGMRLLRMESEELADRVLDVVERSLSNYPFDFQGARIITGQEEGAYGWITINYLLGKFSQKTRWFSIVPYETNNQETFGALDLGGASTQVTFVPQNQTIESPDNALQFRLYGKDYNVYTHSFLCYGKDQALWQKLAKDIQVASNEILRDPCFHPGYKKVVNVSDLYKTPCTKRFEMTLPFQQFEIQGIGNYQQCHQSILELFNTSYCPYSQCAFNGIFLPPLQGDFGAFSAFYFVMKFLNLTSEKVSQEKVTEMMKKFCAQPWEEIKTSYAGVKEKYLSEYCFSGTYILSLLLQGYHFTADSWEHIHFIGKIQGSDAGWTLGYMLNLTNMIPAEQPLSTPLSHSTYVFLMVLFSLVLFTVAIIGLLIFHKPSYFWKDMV

mice pancreatic islets = experiment: Glucose stimulated insulin secretion in isolated mice islets (ELISA); type: cell-based, BALB/c mice; conditions: 16.7 mM glucose, compound 200 µM, 1 h, 37°C
Experimental: Six to eight week old BALB/c mice, weighing 30–40 g, were used in the study. These mice were obtained from the animal house of COMSATS University Islamabad, Abbottabad Campus and placed under standard temperature (25 ± 2°C) and humidity (50–55%) conditions with an alternate 12-h light/dark cycle. All the experimental animals were provided with a continuous supply of food and water. The animals were handled according to internationally accepted guidelines of animal care and use. Moreover, this study was reviewed and approved by Research Ethics Committee, Department of Pharmacy, COMSATS University Islamabad, Abbottabad Campus. (Protocol number: PHM.Eth./CS-M01-020-1609)
The islets were isolated from mice pancreas as previously described, by a process involving collagenase digestion ([Hameed et al., 2018]). Briefly, mice were anesthetized with sodium thiopental (30 mg kg) and sacrificed by cervical dislocation to block the flow of blood. Immediately, mice were transferred to biological hood and their abdominal cavity was opened completely by making an incision on abdomen. In order to stop the bile flow toward duodenum, ampulla was located and clamped under dissection microscope. Then, distention of pancreas was carried out by injecting 3 ml of collagenase solution (1 mg/ml) through common bile duct. The distended pancreas was removed as a whole, transferred to a 50 ml tube and digested in collagenase solution at 37°C. After 15 min, digestion was stopped by placing the tube on ice and 20 ml of Hank’s Balanced Salt Solution (HBSS) was added to it. Thus the digested islets were washed with HBSS (two to three times) by centrifugation (1,000 rpm) for 1 min at 4°C. Finally, islets were purified by passing through a cell strainer (70 µm) and isolated manually (by hand picking) under stereomicroscope (Euromex, Arnhem, Netherlands). All the purification and isolation procedures were carried out in HBSS, containing no magnesium, calcium and phenol red.
Krebs-Ringer bicarbonate buffer (KRBB) was used as an incubation medium for islets and was composed of NaCl (118 mM), KCl (4.7 mM), CaCl2 (1.9 mM), MgSO4 (1.2 mM), NaHCO3 (25 mM), 4-(2-hydroxyethyl)-1-piperazineethanesulfonic acid (HEPES, 10 mM) and bovine serum albumin (0.1%). The pH of KRBB was maintained at 7.4. The isolated islets were size-matched and pre-incubated (3 islets/tube) for 45 min at 37°C in KRBB, supplemented with 3 mM glucose. Thereafter, incubation medium was replaced with fresh KRBB (containing 16.7 mM glucose) and islets were incubated for 60 min at 37°C with or without test substance(s). After incubation, supernatant was collected and stored at −40°C until further use. Finally, collected samples were properly diluted and insulin secretion was estimated with ultra-sensitive mouse insulin ELISA kit (Crystal Chem Inc., Downers Grove, United States) according to the manufacturer’s instructions. The absorbance was measured at 450 nm and insulin secretion was normalized for number of islets used. ([Hameed et al., 2018]).

CCCCSc1nc2c(N)ncnc2n1[C@@H]1O[C@H](COP(=O)(O)OP(=O)(O)OP(=O)(O)O)[C@@H](O)[C@H]1O [8-Bus-ATP]
Ki (h-NTPDase1): 800 ± 200 nM

O=C1Nc2ccccc2C1=O [isatin]
Effect on glucose stimulated insulin secretion (mice pancreatic islets): Neither suramin nor isatin had any significant effect

Reference: paper PMC7734281, “Functionalized Oxoindolin Hydrazine Carbothioamide Derivatives as Highly Potent Inhibitors of Nucleoside Triphosphate Diphosphohydrolases” (Frontiers in Pharmacology, 2020)
